According to article PMC11591284, “Development and Optimization of a Redox Enzyme-Based Fluorescence Biosensor for the Identification of MsrB1 Inhibitors” (Antioxidants, 2024):

Tests used:
MsrB1 [1] = target: T1, MsrB1 (Mus musculus, UniProt Q9JLC3, U95C); assay: NADPH consumption assay of MsrB1 activity; type: biochemical; settings: absorbance at 340 nm, 900 s vs 0 min; approximately 50 μM compound; DMSO control 0.638
T1 construct: made in house
T1 sequence (Q9JLC3 1-116 U95C): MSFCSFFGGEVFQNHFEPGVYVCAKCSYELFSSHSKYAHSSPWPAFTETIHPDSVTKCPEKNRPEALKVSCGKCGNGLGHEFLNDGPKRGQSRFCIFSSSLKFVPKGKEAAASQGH
Method: The activity of MsrB1 was assessed over a 900-s period in a 20 mM 4-(2-hydroxyethyl)-1-piperazineethanesulfonic acid (HEPES) buffer at pH 7.5 and 37 °C. The reaction mixture contained 500 μM N-AcMetO, 6 μM MsrB1, 2 μM mouse thioredoxin, 1 μM mouse thioredoxin reductase, 50 μM NADPH, and approximately 50 μM of a chemical compound. All components, except for the chemical compound, substrate (N-AcMetO), and NADPH, were pre-mixed. The chemical compound was added and incubated for 10 min. NADPH (50 μM) and 500 μM N-AcMetO were added before absorbance measurements began. The rate of NADPH oxidation was monitored by measuring absorbance at 340 nm every 30 s until the reaction was complete.

[2] = target: T2, Recombinant mouse MsrB1 protein (Mus musculus, UniProt Q9JLC3, U95C); assay: Microscale thermophoresis (MST) binding assay; settings: read-out: KD ± SD
T2 construct: made in house; host or cells: E. coli (inferred; Rosetta2 (DE3) pLysS and pET-28a are described only for the RIYsense fusion)
T2 sequence (Q9JLC3 1-116 U95C): T1 sequence (Q9JLC3 1-116 U95C)
Method: MST analysis was performed using the Monolith NT.115 system (NanoTemper Technologies, München, Germany). Recombinant mouse MsrB1 protein was labeled with the Monolith His-Tag Labeling Kit RED-tris-NTA 2nd Generation (NanoTemper Technologies, Germany). The protein was prepared at a concentration of 200 nM, and the RED-tris-NTA 2nd Generation dye was diluted to 100 nM in the PBS-T (Tween 20) buffer. A mixture of 100 μL of 200 nM protein and 100 μL of 100 nM dye was incubated at RT for 30 min. After incubation, the sample was centrifuged at 13,000 rpm at 4 °C for 10 min, and the supernatant was transferred to a new tube, completing the protein labeling process and preparing the sample for analysis. Inhibitor compounds were serially diluted in DMSO, starting at a concentration of 1.25 mM (1:1 dilution, 16 points), and then each of the 16 dilutions was further diluted fivefold with PBS-T buffer. Next, 10 μL of the diluted compounds were mixed with 10 μL of the labeled protein, followed by resuspension and incubation for 10 min at RT. The samples were loaded into capillaries in serial order and analyzed using the Monolith NT.115 system at 60% LED power and 60% MST power. Changes in normalized fluorescence, dependent on the concentration of the compounds after 30 s of MST on time, were analyzed to determine Kd values.

MsrB1 [3] = target: T1, MsrB1; assay: MsrB1 activity assay by HPLC with dabsylated MetO as substrate; type: biochemical; settings: dabsyl-MetO to dabsyl-Met
Method: Methionine sulfoxide reductase B1 activity was determined using dabsylated MetO as substrate. […] The reaction was conducted for 30 min at 37 °C in a water bath and stopped by adding 200 μL of acetonitrile and vortexing. The reaction product, dabsyl-Met, was analyzed by HPLC using a ZORBAX RX-C18 column (5 μm; 4.6 × 150 mm). The column was pre-equilibrated with 0.14 M sodium acetate (pH 6.1), 0.5 mL/L triethylamine, and 30% acetonitrile. A total of 50 μL of the sample was loaded onto the column. The flow rate was 1 mL·min^−1, and a linear gradient elution mode was used (30% to 70%). Dabsyl-Met was detected via absorbance at 436 nm.

[4] = tested on: bone marrow-derived macrophages (BMDMs); assay: Cytokine mRNA expression in LPS-stimulated bone marrow-derived macrophages; type: cell-based, mouse; settings: WT BMDMs, 1 μM inhibitor, LPS stimulation 24 h
Method: Bone marrow-derived macrophages (BMDMs) were generated by culturing bone marrow cells isolated from 8-week-old male C57BL/6 mice and MsrB1 knockout (KO) mice. The cells were cultured in high-glucose Dulbecco’s Modified Eagle Medium (DMEM) (Cytiva, Marlborough, MA, USA) supplemented with 10% fetal bovine serum (FBS), 100 U·mL^−1 penicillin-streptomycin (Gibco, Waltham, MA, USA), 20 mM HEPES (Gibco, Waltham, MA, USA), and 50 ng·mL^−1 recombinant mouse macrophage colony-stimulating factor (M-CSF) (BioLegend, San Diego, CA, USA). On day 3, 10 mL of fresh medium containing 50 ng·mL^−1 M-CSF was added to the cultures. On day 5, cells were treated with 1 μM MsrB1 inhibitors. On day 6, cells were treated with LPS (BioLegend, San Diego, CA, USA) for 24 h. Following treatment, cells were harvested, and total RNA was extracted using the High-Capacity cDNA Reverse Transcription Kit (Applied Biosystems, Foster City, CA, USA). Gene expression of IL-10 and IL-1rn mRNA was analyzed using the QuantStudio 3 Real-Time PCR system.

C57BL/6 mice = assay: TPA-induced acute skin inflammation (ear edema) model; type: in vivo, mouse; settings: WT mice, 0.5 μM inhibitor in drinking water for 21 days, topical TPA
Method: Six-week-old male wild-type (WT) C57BL/6 mice and MsrB1 knockout (KO) mice were used in this experiment. The mice were provided with 50 mL water containing either 0.5 μM MsrB1 inhibitors dissolved in 1% DMSO or 1% DMSO alone (control) for 21 days. After this period, 50 μg·mL^−1 of TPA was applied to the right ear of each mouse, while the left ear received acetone as a control. Twenty hours after the initial TPA application, a second dose was administered. The mice were then sacrificed, and ear tissue samples were collected. The tissues were fixed in 10% formalin, dehydrated, embedded in paraffin, and sectioned into slices 3–5 μm thick. The sections were deparaffinized, rehydrated, and stained with hematoxylin and eosin (H&E) for histological examination under microscopy.

SMILES | NADPH (Abs15min/Abs0min) (MsrB1 [1]) | Kd [2] | Relative enzyme activity of MsrB1 (MsrB1 [3]; 10 µM compound) | Relative enzyme activity of MsrB1 (MsrB1 [3]; 100 µM and 500 µM compound) | IL-1rn mRNA expression [4] | IL-10 mRNA expression [4] | Dermal area of TPA-treated auricle (H&E) compared to wild-type control mice (C57BL/6 mice)
CCc1ccc(-n2c3nc(=O)[nH]c(=O)c-3cc3c(Cl)cccc32)cc1 [B03, 6-chloro-10-(4-ethylphenyl)pyrimido[4,5-b]quinoline-2,4-dione] | 0.918 | 97.1 ± 1.6 nM | no inhibition was observed | decreased in a concentration-dependent manner | reduced | significantly reduced | substantially more enlarged
CCc1ccc(C2=NN(c3ccc(S(N)(=O)=O)cc3)C(c3ccc(O)cc3)C2)cc1 (centres unmarked) [A06, 4-[5-(4-ethylphenyl)-3-(4-hydroxyphenyl)-3,4-dihydropyrazol-2-yl]benzenesulfonamide] | 0.942 | 28.3 ± 1.21 nM | no inhibition was observed | decreased in a concentration-dependent manner | reduced | significantly reduced | substantially more enlarged
